Experiments:
HeLa cells = experiment: Gene transfer evaluated by luciferase assay (Example 2); assay type: cell-based, human; conditions: lipoplex with 1 μg plasmid DNA, various N/P ratios; FIG. 7 and FIG. 8
Experimental: HeLa cells derived from human cervical cancer were seeded in a 24-well dish at 5.0×10^4 cells per well, and cultured overnight at 37° C. in 0.5 ml of a DMEM medium containing 10% FBS. Then, the cells were washed twice with PBS containing 0.36 mM CaCl2 and 0.42 mM MgCl2 (PBS (+)). Next, 0.5 ml of a DMEM medium containing 10% FBS was added, and the cells were supplemented with a lipoplex (100 μl) containing 1 μg of plasmid DNA per well and incubated at 37° C. for 4 hours. Afterward, the cells were washed three times with PBS (+) to remove the lipoplex not incorporated into the cells. Then, 1 ml of a DMEM medium containing 10% FBS was added, and the cells were cultured at 37° C. for 40 hours.
The cells treated with the lipoplex and cultured for 40 hours were washed twice with PBS (+), and further washed once with PBS (−). […] The luciferase activity and the amount of protein in the resulting cell lysate were determined by luciferase assay and a Coomassie (Bradford) Protein Assay Kit (PIERCE). […] The luminescent substrate solution (20 μl) was mixed with a luminescent substrate liquid (95 μl) including luciferin (13.5 μg) and a 5 mg/ml albumin solution (5 ml), and subjected to measurement for 20 seconds with a Lumat LB9507 luminometer (Berthold Japan Co., Ltd.) for an amount of luminescence.

NHDF-ad cells [1] = experiment: Flow cytometry of GFP fluorescence in treated cells; assay type: cell-based, human
HeLa-S3 = experiment: Gene transfer (GFP expression, luciferase activity) versus commercial agents (Example 5); assay type: cell-based; conditions: HeLa-S3 adherent cells; compared with Lipofectamine LTX and FuGENE HD
Experimental: pEGFP-C1 expressing a green fluorescent protein was used as a gene transfer plasmid; and adherent cells COS-7 and Hela-S3, and non-adherent cells K562, which were established cell lines, were used as target cells. Lipoplexes were individually prepared using DL-U2. Then, gene transfer was performed.
(HeLa—S3 cells: 3×10^4 cells/well·DMEM+10% FBS (Pe/St) 500 μl)
(i) A 20 mM Tris-HCl (pH 7.4) buffer was dispensed into three tubes at 35.5 μl (for NP ratio=6) for each of two tubes, and 23 μl (for NP ratio=8) for the remaining tube.
(ii) 1.0 μg of plasmid DNA (pCAG-GFP) was added to each of the three tubes prepared in step (i) at 2 μl (1.0 μg), and the contents were stirred.
(iii) A DL-U2 liposome solution was added to the three tubes prepared in step (ii) at 37.5 μl (N/P ratio=6) for each of two tubes, and 50 μl (N/P ratio=8) for the remaining tube.
(iv) 25 μl of an Opti-MEM (registered trademark) I Reduced-Serum Medium was further added, and the whole was thoroughly mixed and allowed to stand at room temperature for 5 minutes.
100 μl of the DL-plasmid DNA complex solution (N/P ratio=6) was added and mixed with the HeLa—S3 cells. […]
(vii) 48 hours later, luciferase activity was measured according to the protocol of the luciferase assay system (Promega, E1501) (relative values based on the activity of LTX defined as 1 were graphed).

NHDF-ad cells [2] = experiment: Multiple gene transfer, GFP expression (Example 7); assay type: cell-based, human; conditions: transfer on Day 1, 3, 5, observed Day 7
Experimental: pEGFP-C1 expressing a green fluorescent protein was used as a gene transfer plasmid, and NHDF-ad cells, which were normal […] cells derived from adult humans also used for production of iPS cells, were used as target cells. Lipoplexes were individually prepared using DL-U2. Then, gene transfer was performed multiple times.
(NHDF-ad cells: 2×10^4 cells/well·DMEM+10% FBS (Pe/St) 500 μl)
(i) A 20 mM Tris-HCl (pH 7.4) buffer was dispensed into tubes at 71 μl (for NP ratio=6).
(ii) 2.0 μg of plasmid DNA (pCAG-GFP) were added to each of the two tubes prepared in step (i) at 4 μl (2.0 μg), and the contents were stirred.
(iii) To the prepared plasmid DNA solution was added 75 μl of a DL-U2 liposome solution (N/P ratio=6), and the whole was thoroughly mixed using a vortex and incubated at room temperature for 30 minutes.
(iv) 50 μl of an Opti-MEM(R) I Reduced-Serum Medium was further added, and the whole was thoroughly mixed and allowed to stand at room temperature for 5 minutes.
(v) 100 μl per well of the DL-plasmid DNA complex solutions was individually added to one well, and the contents were mixed by shaking the plate so as to be homogeneous.
(vi) The cells were incubated at 37° C. in 5% CO2 for 4 hours, and the growth medium was replaced.
For the cells subjected to gene transfer operations on Day 1, the same gene transfer was performed on Day 3 and Day 5 as well.

various types of cells = experiment: Transfection of various cell strains, GFP expression (Example 8); assay type: cell-based; conditions: COS7, HeLa-S3, A549, U2OS, SKOV3, Balb3T3, CHO, Jurkat, K562; 48 hours
Experimental: 4 hours after the addition, the medium was replaced (however, the medium was not replaced for Jurkat, K562). […] It should be noted that experimental conditions not described in the table conformed to those of the other examples.

CCCCCCCC/C=C\CCCCCCCCN(CCCCCCCC/C=C\CCCCCCCC)CCC(=O)NCCN(CCC(=O)NCCN)CCC(=O)NCCN (racemic) [DL-G1-U2]
gene transfer efficiency (luciferase activity) compared with G1 (HeLa cells): two times higher
fluorescence intensity of GFP expressed in the cells compared with DL-G1 (NHDF-ad cells [1]): about ten times higher
gene transfer activity (HeLa-S3): excellent gene transfer activity
gene transfer activity / gene expression after multiple gene transfer (NHDF-ad cells [2]): allowed the gene to be expressed most efficiently
gene transfer into various types of cells (various types of cells): allowed the gene to be efficiently transferred

From patent US8557875B2, “Gene transfer agent composition containing polyamidoamine dendron” (Public University Corporation Osaka Prefecture University, priority 2009, dated 2013)
